Here are results for three compounds from ChEMBL document CHEMBL1201862, “PubChem BioAssay data set” (2004).

For assay [1], the target named is T1, Insulin-degrading enzyme (Homo sapiens, UniProt P14735).
T1 sequence (P14735 whole entry): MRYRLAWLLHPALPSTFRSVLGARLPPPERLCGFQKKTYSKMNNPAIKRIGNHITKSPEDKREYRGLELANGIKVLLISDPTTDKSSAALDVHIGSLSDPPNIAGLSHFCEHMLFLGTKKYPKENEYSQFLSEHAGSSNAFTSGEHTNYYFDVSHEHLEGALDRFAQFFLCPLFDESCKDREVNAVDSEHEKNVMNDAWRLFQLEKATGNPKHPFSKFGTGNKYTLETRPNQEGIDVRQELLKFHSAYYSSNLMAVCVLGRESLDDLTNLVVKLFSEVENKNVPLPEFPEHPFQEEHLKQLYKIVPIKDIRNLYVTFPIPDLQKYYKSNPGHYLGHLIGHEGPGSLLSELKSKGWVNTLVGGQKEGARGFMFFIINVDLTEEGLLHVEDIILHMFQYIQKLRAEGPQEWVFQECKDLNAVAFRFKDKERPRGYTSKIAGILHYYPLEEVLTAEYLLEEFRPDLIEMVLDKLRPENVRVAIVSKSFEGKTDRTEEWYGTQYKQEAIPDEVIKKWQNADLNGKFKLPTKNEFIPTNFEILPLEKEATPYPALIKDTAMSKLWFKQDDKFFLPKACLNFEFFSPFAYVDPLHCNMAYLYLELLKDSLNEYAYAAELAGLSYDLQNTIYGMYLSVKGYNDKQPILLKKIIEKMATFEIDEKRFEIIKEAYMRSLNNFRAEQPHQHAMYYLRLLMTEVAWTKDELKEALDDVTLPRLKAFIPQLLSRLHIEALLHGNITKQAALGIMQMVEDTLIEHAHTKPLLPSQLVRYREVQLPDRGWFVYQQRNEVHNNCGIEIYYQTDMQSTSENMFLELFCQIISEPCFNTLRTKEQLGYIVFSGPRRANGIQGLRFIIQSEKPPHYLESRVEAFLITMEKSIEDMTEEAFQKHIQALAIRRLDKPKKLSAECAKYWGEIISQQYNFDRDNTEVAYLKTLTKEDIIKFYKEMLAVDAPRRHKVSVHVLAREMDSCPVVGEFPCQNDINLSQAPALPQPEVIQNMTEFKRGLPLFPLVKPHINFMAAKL
The assay can be described thus: activators of recombinant IDE enzyme, dose response, counter-screen for IDE activator project, biochemical, fluorescence polarization (AID 588681). A general note: A counterscreen serves to expose hits that act by an unwanted route or on another target.

In assay [2] the target is T1, Insulin-degrading enzyme. The assay can be described thus: activators of endogenous IDE in HEK cells, dose response, cell-based, fluorescence polarization (AID 588439). Format: functional.
Assay [3] deals with Prothrombin (Bos taurus, UniProt P00735). Kind of assay: thrombin inhibition, dose response, biochemical, fluorescence polarization, uHTS hits (AID 602369). Format: functional.
Assay [4] addresses 72 kDa type IV collagenase (Homo sapiens, UniProt P08253). The assay can be described thus: Dose Response validation of uHTS RPN11 inhibitor hits using a MMP-2 Fluorescence assay. Format: functional.
Assay [5] addresses DNA (cytosine-5)-methyltransferase 1 (Homo sapiens, UniProt P26358). Kind of assay: DNMT1 methyltransferase inhibitors, confirmation, biochemical, fluorescent molecular beacon (AID 602386). The class given is functional.
Assay [6] has as its target T2, Replicative DNA helicase DnaB (Mycobacterium tuberculosis, UniProt P9WMR3).
T2 sequence (P9WMR3 whole entry): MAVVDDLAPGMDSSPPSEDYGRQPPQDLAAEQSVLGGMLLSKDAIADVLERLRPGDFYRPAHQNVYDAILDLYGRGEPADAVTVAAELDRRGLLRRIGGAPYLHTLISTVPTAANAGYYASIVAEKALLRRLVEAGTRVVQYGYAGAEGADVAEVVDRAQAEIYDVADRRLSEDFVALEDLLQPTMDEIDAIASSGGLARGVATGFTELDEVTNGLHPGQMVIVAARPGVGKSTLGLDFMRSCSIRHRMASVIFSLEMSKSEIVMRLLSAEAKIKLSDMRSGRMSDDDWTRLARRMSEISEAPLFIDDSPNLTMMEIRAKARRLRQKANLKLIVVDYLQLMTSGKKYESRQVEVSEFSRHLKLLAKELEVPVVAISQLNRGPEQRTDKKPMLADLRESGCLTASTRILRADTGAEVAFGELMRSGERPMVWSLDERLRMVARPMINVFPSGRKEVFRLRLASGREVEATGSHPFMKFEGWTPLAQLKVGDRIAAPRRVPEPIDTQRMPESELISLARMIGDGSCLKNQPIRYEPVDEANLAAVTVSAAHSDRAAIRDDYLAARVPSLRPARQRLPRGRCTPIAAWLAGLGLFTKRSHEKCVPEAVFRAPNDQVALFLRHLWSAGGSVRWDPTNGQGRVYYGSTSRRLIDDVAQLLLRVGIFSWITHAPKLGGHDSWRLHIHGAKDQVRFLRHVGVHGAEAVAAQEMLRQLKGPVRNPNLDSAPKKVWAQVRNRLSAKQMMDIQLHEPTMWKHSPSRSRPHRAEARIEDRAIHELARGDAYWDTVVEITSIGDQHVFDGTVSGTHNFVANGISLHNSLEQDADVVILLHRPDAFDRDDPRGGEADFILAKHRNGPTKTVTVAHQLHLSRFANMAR
The assay can be described thus: DnaB intein splicing inhibitors, dose response, biochemical, cell-free fluorescence (AID 449749). Format: functional.

For assay [7], the target named is T3, Protein RecA (Mycobacterium tuberculosis, UniProt P9WHJ3).
T3 sequence (P9WHJ3 whole entry): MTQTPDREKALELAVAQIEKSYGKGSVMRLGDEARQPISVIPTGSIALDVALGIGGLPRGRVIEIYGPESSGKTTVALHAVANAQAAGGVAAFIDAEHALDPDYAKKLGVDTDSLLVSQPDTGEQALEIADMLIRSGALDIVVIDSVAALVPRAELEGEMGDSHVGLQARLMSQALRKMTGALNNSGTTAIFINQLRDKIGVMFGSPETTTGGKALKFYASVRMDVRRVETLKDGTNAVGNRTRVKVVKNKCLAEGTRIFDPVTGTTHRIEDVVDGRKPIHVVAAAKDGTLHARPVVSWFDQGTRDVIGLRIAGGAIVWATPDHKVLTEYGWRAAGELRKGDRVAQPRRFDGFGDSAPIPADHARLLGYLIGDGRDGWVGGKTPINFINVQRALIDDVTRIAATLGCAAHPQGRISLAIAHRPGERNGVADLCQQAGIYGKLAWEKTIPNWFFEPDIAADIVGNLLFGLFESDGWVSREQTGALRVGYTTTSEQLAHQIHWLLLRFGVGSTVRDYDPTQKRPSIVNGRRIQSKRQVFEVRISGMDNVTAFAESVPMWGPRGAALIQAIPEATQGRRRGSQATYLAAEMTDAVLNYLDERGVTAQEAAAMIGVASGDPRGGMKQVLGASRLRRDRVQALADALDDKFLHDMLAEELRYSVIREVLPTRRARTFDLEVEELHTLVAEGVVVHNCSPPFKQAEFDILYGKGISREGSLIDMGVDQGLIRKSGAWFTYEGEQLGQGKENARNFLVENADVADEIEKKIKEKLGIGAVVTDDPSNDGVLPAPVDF
The assay can be described thus: Fluorescence Cell-Free Homogeneous Dose Retest to Identify Inhibitors of RecA-Intein Splicing Activity. [Related pubchem assays (depositor defined):AID2097, AID2223, AID489010, AID492950]. The class given is functional.

Calls of active or inactive are those of the source. Some results are limits rather than exact numbers.

Chain of 72 kDa type IV collagenase (P08253 whole entry): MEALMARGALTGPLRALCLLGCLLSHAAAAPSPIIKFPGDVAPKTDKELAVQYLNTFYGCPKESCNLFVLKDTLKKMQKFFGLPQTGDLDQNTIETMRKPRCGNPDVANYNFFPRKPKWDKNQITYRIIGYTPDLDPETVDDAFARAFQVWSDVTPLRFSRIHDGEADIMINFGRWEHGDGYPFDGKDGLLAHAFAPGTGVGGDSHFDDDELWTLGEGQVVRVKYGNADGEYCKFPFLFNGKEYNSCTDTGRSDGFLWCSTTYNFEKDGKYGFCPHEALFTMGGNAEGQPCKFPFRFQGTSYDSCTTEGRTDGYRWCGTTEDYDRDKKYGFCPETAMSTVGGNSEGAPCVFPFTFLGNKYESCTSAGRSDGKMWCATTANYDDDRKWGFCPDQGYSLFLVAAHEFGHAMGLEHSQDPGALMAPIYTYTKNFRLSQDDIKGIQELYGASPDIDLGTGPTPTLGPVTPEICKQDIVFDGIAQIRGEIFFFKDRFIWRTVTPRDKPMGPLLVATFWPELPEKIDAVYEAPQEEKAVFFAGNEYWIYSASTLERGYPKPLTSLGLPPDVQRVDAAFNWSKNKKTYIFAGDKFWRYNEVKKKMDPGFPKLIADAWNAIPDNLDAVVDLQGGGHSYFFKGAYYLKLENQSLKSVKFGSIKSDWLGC
Chain of DNA (cytosine-5)-methyltransferase 1 (P26358 whole entry): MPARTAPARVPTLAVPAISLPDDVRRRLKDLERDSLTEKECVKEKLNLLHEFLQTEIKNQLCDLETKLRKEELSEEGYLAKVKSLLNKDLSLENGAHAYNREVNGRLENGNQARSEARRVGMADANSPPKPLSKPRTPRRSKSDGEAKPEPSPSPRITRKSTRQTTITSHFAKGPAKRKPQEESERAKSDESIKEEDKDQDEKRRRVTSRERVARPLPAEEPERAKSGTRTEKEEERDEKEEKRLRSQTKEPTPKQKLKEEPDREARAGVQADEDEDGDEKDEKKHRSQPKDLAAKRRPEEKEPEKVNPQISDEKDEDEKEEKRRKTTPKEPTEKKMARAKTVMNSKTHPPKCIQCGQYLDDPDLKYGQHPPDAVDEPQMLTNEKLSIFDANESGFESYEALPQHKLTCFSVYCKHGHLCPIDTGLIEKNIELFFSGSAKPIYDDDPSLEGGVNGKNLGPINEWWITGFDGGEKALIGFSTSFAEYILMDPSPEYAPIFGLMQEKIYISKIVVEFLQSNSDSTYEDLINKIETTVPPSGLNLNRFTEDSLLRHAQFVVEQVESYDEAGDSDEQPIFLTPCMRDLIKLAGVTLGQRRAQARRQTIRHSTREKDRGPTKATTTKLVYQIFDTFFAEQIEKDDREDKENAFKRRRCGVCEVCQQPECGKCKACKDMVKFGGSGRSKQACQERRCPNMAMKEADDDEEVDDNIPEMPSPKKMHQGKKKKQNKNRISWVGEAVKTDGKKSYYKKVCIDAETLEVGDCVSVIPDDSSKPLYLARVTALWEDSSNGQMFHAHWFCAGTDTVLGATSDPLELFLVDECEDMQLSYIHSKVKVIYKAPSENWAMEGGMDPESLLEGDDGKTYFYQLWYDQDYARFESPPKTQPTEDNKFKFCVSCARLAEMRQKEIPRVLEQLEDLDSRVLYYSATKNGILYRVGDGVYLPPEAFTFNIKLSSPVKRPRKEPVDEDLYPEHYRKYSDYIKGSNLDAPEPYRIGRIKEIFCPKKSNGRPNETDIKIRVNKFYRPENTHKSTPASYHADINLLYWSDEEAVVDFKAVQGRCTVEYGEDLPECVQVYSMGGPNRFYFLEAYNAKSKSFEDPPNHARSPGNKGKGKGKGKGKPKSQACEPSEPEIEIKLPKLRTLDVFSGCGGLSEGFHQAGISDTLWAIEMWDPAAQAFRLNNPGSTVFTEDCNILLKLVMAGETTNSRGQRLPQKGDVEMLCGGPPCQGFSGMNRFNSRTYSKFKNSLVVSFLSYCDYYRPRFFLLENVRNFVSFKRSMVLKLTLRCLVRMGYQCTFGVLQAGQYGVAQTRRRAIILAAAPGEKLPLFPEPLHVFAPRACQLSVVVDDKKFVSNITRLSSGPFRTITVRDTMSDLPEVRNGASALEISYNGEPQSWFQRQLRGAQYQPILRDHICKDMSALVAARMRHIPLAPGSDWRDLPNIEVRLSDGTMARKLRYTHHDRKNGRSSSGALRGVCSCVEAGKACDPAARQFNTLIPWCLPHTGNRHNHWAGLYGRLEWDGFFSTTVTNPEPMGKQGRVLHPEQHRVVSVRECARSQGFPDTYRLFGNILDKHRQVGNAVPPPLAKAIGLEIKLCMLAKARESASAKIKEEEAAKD

One may read the EC50 as the concentration needed to bring the measured effect to its halfway point. Take `O=c1oc2c(O)cccc2cc1-c1nc2ccccc2[nH]1`: the EC50 in assay [1] and in assay [2] was > 54.7 µM (inactive) in each case.
As usually defined, the IC50 is the concentration needed to halve the response being measured. In the case of `CCOC(=O)c1sc2nc3c(SCC(=O)O)cc(C(=O)c4ccccc4O)cn3c(=O)c2c1C`, the results for the IC50 in assay [3], in assay [4] and in assay [5] were 56.6 µM (active), 0.821 µM (active) and 4.12 µM (active), respectively.
As a reminder, the AC50 is the midpoint of the concentration-response curve, whichever way the signal moves. Take `CCOC(=O)c1ccc(Nc2cc3ccccc3c(O)n2)cc1`: the AC50 in assay [6] is 11.1 µM (active). The EC50 in assay [7] was 9.12 µM (active).
